Patent US20240150377A1, “MODULATORS OF CYSTIC FIBROSIS TRANSMEMBRANE CONDUCTANCE REGULATOR” (VERTEX PHARMACEUTICALS INCORPORATED, priority 2020, published 2024)

Target: T1, CFTR (Homo sapiens, UniProt P13569, DEL508-508)
T1 construct: endogenous in cells; host or cells: primary human bronchial epithelial cells from CF subjects (F508del/MF-HBE), differentiated at air-liquid interface
Assay: HBE assay: Ussing chamber assay of CFTR-mediated short-circuit currents
Assay type: cell-based
Conditions: HBE assay; for activation at 10 µM: read-out: HBE Activity at 10 μM (%); for EC50: read-out: HBE EC50; for Emax: read-out: HBE Max activity (%)
Method in brief: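 CFTR-mediated Isc (μA/cm²) equals the peak response to apical 20 μM forskolin minus the residual after a 20 μM each BPO/GlyH-101/CFTR inhibitor 172 cocktail, recorded in Ussing chambers at Vhold 0 mV, 37 °C, pH 7.4, with 30 μM apical amiloride. Cells were F508del/MF HBE cultures preincubated 18-24 h with corrector (concentration range or 10 μM) plus 1 μM ivacaftor in 20% human serum.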

T1 sequence (P13569 with tags, fused parts or gaps DEL508-508): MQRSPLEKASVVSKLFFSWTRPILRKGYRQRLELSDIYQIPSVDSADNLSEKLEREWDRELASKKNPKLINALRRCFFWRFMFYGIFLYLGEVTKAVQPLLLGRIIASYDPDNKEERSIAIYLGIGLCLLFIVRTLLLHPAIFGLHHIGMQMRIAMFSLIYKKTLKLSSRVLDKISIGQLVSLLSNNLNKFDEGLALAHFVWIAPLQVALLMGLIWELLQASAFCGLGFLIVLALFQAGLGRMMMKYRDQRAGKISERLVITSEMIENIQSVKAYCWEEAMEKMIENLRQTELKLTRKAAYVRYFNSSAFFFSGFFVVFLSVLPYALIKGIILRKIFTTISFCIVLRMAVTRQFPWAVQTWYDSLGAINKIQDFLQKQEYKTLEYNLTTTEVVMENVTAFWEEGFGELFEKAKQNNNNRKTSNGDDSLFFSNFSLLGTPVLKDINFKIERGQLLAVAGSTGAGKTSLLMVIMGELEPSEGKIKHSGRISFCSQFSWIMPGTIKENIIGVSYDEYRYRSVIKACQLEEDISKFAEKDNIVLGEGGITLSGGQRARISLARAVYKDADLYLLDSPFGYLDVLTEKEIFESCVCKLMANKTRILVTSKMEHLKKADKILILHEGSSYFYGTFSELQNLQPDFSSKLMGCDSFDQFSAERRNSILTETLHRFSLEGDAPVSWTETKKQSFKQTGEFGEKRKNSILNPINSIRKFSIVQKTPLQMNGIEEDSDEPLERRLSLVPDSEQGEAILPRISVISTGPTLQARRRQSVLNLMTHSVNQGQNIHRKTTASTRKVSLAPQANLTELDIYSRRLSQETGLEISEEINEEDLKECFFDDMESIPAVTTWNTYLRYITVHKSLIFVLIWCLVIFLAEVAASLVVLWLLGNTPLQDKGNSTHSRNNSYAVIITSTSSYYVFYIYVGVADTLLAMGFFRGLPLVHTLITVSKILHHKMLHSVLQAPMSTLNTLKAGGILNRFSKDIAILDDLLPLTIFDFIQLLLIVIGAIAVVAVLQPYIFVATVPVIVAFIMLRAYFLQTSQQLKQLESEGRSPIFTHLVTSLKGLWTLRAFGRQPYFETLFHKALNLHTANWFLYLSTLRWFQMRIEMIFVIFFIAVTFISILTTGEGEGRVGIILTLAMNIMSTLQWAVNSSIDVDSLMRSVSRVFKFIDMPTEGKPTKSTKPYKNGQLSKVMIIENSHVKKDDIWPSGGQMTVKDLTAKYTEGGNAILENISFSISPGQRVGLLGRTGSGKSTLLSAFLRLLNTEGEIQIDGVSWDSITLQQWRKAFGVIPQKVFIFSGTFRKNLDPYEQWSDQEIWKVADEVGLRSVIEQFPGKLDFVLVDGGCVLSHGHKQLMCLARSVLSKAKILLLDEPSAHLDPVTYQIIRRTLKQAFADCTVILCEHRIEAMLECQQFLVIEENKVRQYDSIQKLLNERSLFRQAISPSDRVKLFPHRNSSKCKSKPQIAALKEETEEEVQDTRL

Compound | activation at 10 µM | EC50 | Emax | HBE Max activity (%)
COC[C@@H]1COCCN1c1cccc(CN2C(=O)c3cccc(c3)S(=O)(=O)Nc3nc(cc(-c4c(C)cccc4C)n3)OC[C@H]2CC(C)(C)C)n1 [Compound 1435] | > 60% | – | – | –
Cc1cc(C2COCCO2)cnc1CN1C(=O)c2cccc(c2)S(=O)(=O)Nc2nc(cc(-c3c(C)cccc3C)n2)OC[C@H]1CC(C)(C)C (stereo partly drawn) [Compound 1436] | > 60% | < 1000 nM | > 60% | –
COCCN(c1cncc(CN2C(=O)c3cccc(c3)S(=O)(=O)Nc3nc(cc(-c4c(C)cccc4C)n3)OC[C@H]2CC(C)(C)C)n1)C1CCCC1 [Compound 1437] | – | < 1000 nM | > 60% | –
CCO[C@H]1CCN(c2cnc(CN3C(=O)c4cccc(c4)S(=O)(=O)Nc4nc(cc(-c5c(C)cccc5C)n4)OC[C@H]3CC(C)(C)C)nc2)C1 [Compound 1438] | – | < 1000 nM | > 60% | –
COC[C@H]1CCN(c2cnc(CN3C(=O)c4cccc(c4)S(=O)(=O)Nc4nc(cc(-c5c(C)cccc5C)n4)OC[C@H]3CC(C)(C)C)nc2)C1 [Compound 1439] | – | < 1000 nM | > 60% | –
Cc1cccc(C)c1-c1cc2nc(n1)NS(=O)(=O)c1cccc(c1)C(=O)N(Cc1ncc(N3CC[C@](C)(F)C3)cn1)[C@H](CC(C)(C)C)CO2 [Compound 1440] | – | < 1000 nM | > 60% | –
Cc1cccc(C)c1-c1cc2nc(n1)NS(=O)(=O)c1cccc(c1)C(=O)N(Cc1ncc(N3CC[C@@](C)(F)C3)cn1)[C@H](CC(C)(C)C)CO2 [Compound 1441] | – | < 1000 nM | > 60% | –
Cc1cccc(C)c1-c1cc2nc(n1)NS(=O)(=O)c1cccc(c1)C(=O)N(Cc1ncc(N3CCC(C)(F)CC3)cn1)[C@H](CC(C)(C)C)CO2 [Compound 1442] | > 60% | – | – | –
Cc1cccc(C)c1-c1cc2nc(n1)NS(=O)(=O)c1cccc(c1)C(=O)N(Cc1ncc(N3CCC(F)(F)CC3)cn1)[C@H](CC(C)(C)C)CO2 [Compound 1443] | > 60% | – | – | –
Cc1cccc(C)c1-c1cc2nc(n1)NS(=O)(=O)c1cccc(c1)C(=O)N(Cc1ncc(N3CC(F)(F)C3)cn1)[C@H](CC(C)(C)C)CO2 [Compound 1444] | – | < 1000 nM | > 60% | –
Cc1cccc(C)c1-c1cc2nc(n1)NS(=O)(=O)c1cccc(c1)C(=O)N(Cc1cccc(N(CC3CCCO3)C(C)C)n1)[C@H](CC(C)(C)C)CO2 (stereo partly drawn) [Compound 1445] | – | 1000 to 3000 nM | > 60% | –
Cc1cccc(C)c1-c1cc2nc(n1)NS(=O)(=O)c1cccc(c1)C(=O)N(Cc1cccc(N(CC3CCCO3)C(C)C)n1)[C@H](CC(C)(C)C)CO2 (stereo partly drawn) [Compound 1446] | – | < 1000 nM | – | +++ (+++ is >60+)
CC[C@@H](C)Oc1cnc(CN2C(=O)c3cccc(c3)S(=O)(=O)Nc3nc(cc(-c4c(C)cccc4C)n3)OC[C@H]2CC2CC2)nc1 [Compound 1447] | – | < 1000 nM | > 60% | –
Cc1cccc(C)c1-c1cc2nc(n1)NS(=O)(=O)c1cccc(c1)C(=O)N(Cc1ccnc(N3CCC[C@H]3C)n1)[C@H](CC(C)(C)C)CO2 [Compound 1449] | – | < 1000 nM | > 60% | –
COC[C@H]1CC[C@@H](C)N1c1cncc(CN2C(=O)c3cccc(c3)S(=O)(=O)Nc3nc(cc(-c4c(C)cccc4C)n3)OC[C@H]2CC(C)(C)C)n1 [Compound 1450] | – | < 1000 nM | > 60% | –
CO[C@H](C)[C@@H]1CCCN1c1cncc(CN2C(=O)c3cccc(c3)S(=O)(=O)Nc3nc(cc(-c4c(C)cccc4C)n3)OC[C@H]2CC(C)(C)C)n1 [Compound 1451] | – | < 1000 nM | > 60% | –
CC[C@H](C)Oc1cnc(CN2C(=O)c3cccc(c3)S(=O)(=O)Nc3nc(cc(-c4c(C)cccc4C)n3)OC[C@H]2CC2CC2)nc1 [Compound 1453] | – | 1000 to 3000 nM | > 60% | –
Cc1cccc(C)c1-c1cc2nc(n1)NS(=O)(=O)c1cccc(c1)C(=O)N(Cc1ncc(OC3CC(C)(C)C3)cn1)[C@H](CC1CC1)CO2 [Compound 1454] | – | < 1000 nM | > 60% | –
Cc1cccc(C)c1-c1cc2nc(n1)NS(=O)(=O)c1cccc(c1)C(=O)N(Cc1ncc(O[C@@H](C)C(C)C)cn1)[C@H](CC1CC1)CO2 [Compound 1455] | – | < 1000 nM | > 60% | –
Cc1cccc(C)c1-c1cc2nc(n1)NS(=O)(=O)c1cccc(c1)C(=O)N(Cc1cnc(N(C)CCOC(C)C)o1)[C@H](CC(C)(C)C)CO2 [Compound 1460] | > 60% | – | – | –
CCO[C@H]1C[C@@H](Oc2cnc(CN3C(=O)c4cccc(c4)S(=O)(=O)Nc4nc(cc(-c5c(C)cccc5C)n4)OC[C@H]3CC(C)C)nc2)C1 [Compound 1461] | – | < 1000 nM | > 60% | –
Cc1cccc(C)c1-c1cc2nc(n1)NS(=O)(=O)c1cccc(c1)C(=O)N(Cc1ncc(OC3CCCC3)cn1)[C@H](CC1CC1)CO2 [Compound 1463] | – | < 1000 nM | > 60% | –
Cc1cccc(C)c1-c1cc2nc(n1)NS(=O)(=O)c1cccc(c1)C(=O)N(Cc1ncc(N3CCC(C)(C)C3)cn1)[C@H](CC1CC1)CO2 [Compound 1464] | – | < 1000 nM | > 60% | –

Compound | activation at 10 µM | EC50 | Emax | HBE Max activity (%)
Cc1cccc(C)c1-c1cc2nc(n1)NS(=O)(=O)c1cccc(c1)C(=O)N(Cc1ncc(OC(C)C)cn1)C(C(C)C(C)C)CO2 (stereo not drawn) [Compound 1466] | > 60% | – | – | –
Cc1cccc(C)c1-c1cc2nc(n1)NS(=O)(=O)c1cccc(c1)C(=O)N(Cc1ncc(OC(C)C)cc1F)[C@H](CC1CC1)CO2 [Compound 1467] | – | 1000 to 3000 nM | > 60% | –
Cc1cccc(C)c1-c1cc2nc(n1)NS(=O)(=O)c1cccc(c1)C(=O)N(Cc1ncc(OC3CCC3)cc1F)[C@H](CC1CC1)CO2 [Compound 1468] | – | < 1000 nM | > 60% | –
Cc1cccc(C)c1-c1cc2nc(n1)NS(=O)(=O)c1cccc(c1)C(=O)N(Cc1ncc(N3CCC(F)(F)C3)cn1)[C@H](CC1CC1)CO2 [Compound 1469] | – | < 1000 nM | > 60% | –
CC[C@H](C)[C@@H]1COc2cc(-c3c(C)cccc3C)nc(n2)NS(=O)(=O)c2cccc(c2)C(=O)N1Cc1ncc(OC(C)C)cn1 [Compound 1471] | – | < 1000 nM | > 60% | –
CC[C@H](C)[C@@H]1COc2cc(-c3c(C)cccc3C)nc(n2)NS(=O)(=O)c2cccc(c2)C(=O)N1Cc1ncc(OC2CCC2)cn1 [Compound 1472] | > 60% | < 1000 nM | > 60% | –
CC[C@@H](C)[C@@H]1COc2cc(-c3c(C)cccc3C)nc(n2)NS(=O)(=O)c2cccc(c2)C(=O)N1Cc1ncc(OC(C)C)cn1 [Compound 1473] | – | < 1000 nM | > 60% | –
CC[C@@H](C)[C@@H]1COc2cc(-c3c(C)cccc3C)nc(n2)NS(=O)(=O)c2cccc(c2)C(=O)N1Cc1ncc(OC2CCC2)cn1 [Compound 1474] | – | < 1000 nM | > 60% | –
Cc1cccc(C)c1-c1cc2nc(n1)NS(=O)(=O)c1cccc(c1)C(=O)N(Cc1ccnc(N3CCC[C@H]3C(C)C)n1)[C@H](CC(C)(C)C)CO2 [Compound 1475] | – | < 1000 nM | > 60% | –
Cc1cccc(C)c1-c1cc2nc(n1)NS(=O)(=O)c1cccc(c1)C(=O)N(Cc1ncc(N3CCC(C)(C)C3)cn1)[C@H](CC1CCC1)CO2 [Compound 1477] | – | < 1000 nM | > 60% | –
Cc1cccc(C)c1-c1cc2nc(n1)NS(=O)(=O)c1cccc(c1)C(=O)N(Cc1ncc(OC3CC4(CC4)C3)cn1)[C@H](CC1CC1)CO2 [Compound 1478] | – | < 1000 nM | > 60% | –
Cc1cccc(C)c1-c1cc2nc(n1)NS(=O)(=O)c1cccc(c1)C(=O)N(Cc1ncc(N3CCC(F)(F)C3)cn1)[C@H](CC1CCC1)CO2 [Compound 1479] | – | < 1000 nM | > 60% | –
Cc1cccc(C)c1-c1cc2nc(n1)NS(=O)(=O)c1cccc(c1)C(=O)N(Cc1ncc(N3C[C@@H](F)[C@@H](F)C3)cn1)[C@H](CC(C)(C)C)CO2 [Compound 1481] | – | < 1000 nM | > 60% | –
CCOc1cnc(CN2C(=O)c3cccc(c3)S(=O)(=O)Nc3nc(cc(-c4c(C)cccc4C)n3)OC[C@H]2CC2CC2)nc1 [Compound 1482] | – | < 1000 nM | > 60% | –
COC(C)(C)CNc1cncc(CN2C(=O)c3cccc(c3)S(=O)(=O)Nc3nc(cc(-c4c(C)cccc4C)n3)OC[C@H]2CC(C)(C)C)n1 [Compound 1483] | – | < 1000 nM | > 60% | –
COCC1(CNc2cncc(CN3C(=O)c4cccc(c4)S(=O)(=O)Nc4nc(cc(-c5c(C)cccc5C)n4)OC[C@H]3CC(C)(C)C)n2)CC1 [Compound 1484] | > 60% | – | – | –
Cc1cccc(C)c1-c1cc2nc(n1)NS(=O)(=O)c1cccc(c1)C(=O)N(Cc1ncc(OC3CCC3)cn1)[C@H](CCC(C)(C)C)CO2 [Compound 1486] | > 60% | – | – | –
CCOc1cnc(CN2C(=O)c3cccc(c3)S(=O)(=O)Nc3nc(cc(-c4c(C)cccc4C)n3)OC[C@H]2CC2CCC2)nc1 [Compound 1487] | – | < 1000 nM | > 60% | –
CCOc1cnc(CN2C(=O)c3cccc(c3)S(=O)(=O)Nc3nc(cc(-c4c(C)cccc4C)n3)OC[C@H]2CCC(C)(C)C)nc1 [Compound 1488] | – | < 1000 nM | > 60% | –
CCOc1cnc(CN2C(=O)c3cccc(c3)S(=O)(=O)Nc3nc(cc(-c4c(C)cccc4C)n3)OC[C@H]2CC(C)(C)C(F)(F)F)nc1 [Compound 1489] | – | < 1000 nM | > 60% | –
CCOc1cnc(CN2C(=O)c3cccc(c3)S(=O)(=O)Nc3nc(cc(-c4c(C)cccc4C)n3)OC[C@H]2CC2(C(F)(F)F)CC2)nc1 [Compound 1490] | – | < 1000 nM | > 60% | –
COC(C)(C)CN(C)c1cncc(CN2C(=O)c3cccc(c3)S(=O)(=O)Nc3nc(cc(-c4c(C)cccc4C)n3)OC[C@H]2CC(C)(C)C)n1 [Compound 1491] | – | < 1000 nM | > 60% | –
Cc1cccc(C)c1-c1cc2nc(n1)NS(=O)(=O)c1cccc(c1)C(=O)N(Cc1cncc(N3CCC[C@H]3COC(C)C)n1)[C@H](CC(C)(C)C)CO2 [Compound 1494] | – | < 1000 nM | > 60% | –
